Measured values published in patent US9486434B2, “Method for delivery and use of isothiocyanates for prophylaxis and/or therapy of bladder cancer” (Health Research Inc., priority 2010, dated 2016).

Key:
tubulin = assay: Tubulin polymerization in vitro assay; format: biochemical; conditions: result not shown
UM-UC-3 cells = assay: Wright-Giemsa staining for mitotic figures, UM-UC-3 cells; format: cell-based, human; conditions: 24 h, compared with G2/M by flow cytometry
Procedure: (§1) FIG. 4. Effect of AITC on mitosis, tubulin expression and apoptosis in human bladder cancer UM-UC-3 cells. Cells were treated with vehicle or AITC for 24 h (each numerical value is mean±SD). A. Flow cytometry analysis for cell cycle arrest. B. Wright-Giemsa staining for counting mitotic figures. Arrows point to cells in mitosis or mitotic catastrophe. C. Immunofluorescent staining of microtubules (green color) and DNA staining with DAPI (blue color). D. Western blotting of tubulins (GAPDH as a loading control). E. Loss of mitochondrial transmembrane potential (Δψm) measured by flow cytometry. F. Western blotting of caspase-9 and caspase-3 (GAPDH as a loading control). G. Apoptotic cells (TUNEL cells) measured by flow cytometry. Cells in F and G were co-treated with or without 20 microM Z-LEHD-FMK (a caspase-9 inhibitor).

[1] = test system: cyclooxygenase-2 (Cox-2) in human bladder cancer HT1376 cells; assay: Western blot analysis of Cox-2 in HT1376 cells; format: cell-based; conditions: 24 h, cells overexpressing Cox-2
Procedure: FIG. 5. The effects of AITC and SF on cyclooxygenase-2 (Cox-2) expression in human bladder cancer cells. Human bladder cancer HT1376 cells that over express Cox-2 were treated with AITC or SF at the indicated concentrations for 24 h and then harvested for Western blot analysis of Cox-2. GAPDH is used as a loading control.

[2] = test system: α-tubulin, β-tubulin, γ-tubulin, caspase-9, caspase-3, VEGF in UM-UC-3 cells; assay: Western blotting in UM-UC-3 cells (tubulins, caspases, VEGF); format: cell-based, human; conditions: 24 h
Procedure: as §1
FIG. 8. Inhibition of bladder cancer development by MSP-1. Female F344 rats were inoculated with AY-27 cells intravesically via a urethra catheter to initiate development of orthotopic bladder cancer. Oral administration of MSP-1 of vehicle (water) once daily was started 1 day after cancer cell inoculation and ended 3 weeks later. The number of rats per group varied from 11-29. A. Initial (□) and final (▪) body weights. B. Tumor weight was calculated by subtracting the average normal bladder weight from tumor-bearing bladder weight. *P<0.05. Each value in A and B is mean±SEM. C. Percentage of bladder where the tumor invaded the muscle tissue. D. The effects of MSP-1 on selected anticancer targets in UM-UC-3 cells (in vitro), AY-27 cells (in vitro) and AY-27 tumors (in vivo). The cells were treated with MSP-1 at the sinigrin concentrations of 13 and 26 microM for 24 h. The bladder tumors were removed from rats treated with MSP-1 at the sinigrin doses of 9 or 90 micromols/kg once daily for 3 weeks, started 1 day after cancer cell inoculation. Cell lysates and tumor homogenates were analyzed by Western blotting, using GAPDH as a loading control.
Western blot analysis. […]

Which results are given for `C=CCN=C=S` [AITC, allyl isothiocyanate]?
rate of tubulin polymerization (tubulin): no effect; arrest in mitosis (UM-UC-3 cells): arrested cells almost exclusively in mitosis; effect on Cox-2 expression [1]: not detectable; caspase-9 and caspase-3 activation [2]: activation of both caspase-9 and caspase-3; α-tubulin and β-tubulin levels [2]: significantly down regulated
